Measurements taken from patent publication US20240294586A1, “TENASCIN-C AUTOANTIGENIC EPITOPES IN RHEUMATOID ARTHRITIS” (Benaroya Research Institute at Virginia Mason, priority 2020, published 2024).
Where no end group is shown, it is not given here. [ ]: non-standard residue; d: D form. Cit = NC(=O)NCCC[C@H](N)C(=O)O

Key:
memory CD4+ T cells = assay: Ex vivo detection of peptide-reactive T cells by multiplex HLA class II tetramers; type: cell-based, human; settings: peripheral blood, RA n=9, HC n=7
Protocol: Recombinant HLA-DRB1*04:01 protein was produced by the BRI Tetramer Core (Benaroya Research Institute, Seattle, WA) as previously described (Novak et al. 1999 J Clin Inv.104:R63). Soluble HLA-DRB1*04:01 monomer was purified from insect cell culture supernatants and biotinylated at a sequence-specific site using biotin ligase (Avidity) prior to dialysis into phosphate storage buffer. The biotinylated monomer was loaded with 0.2 mg/ml of peptide by incubating at 37° C. for 72 hours in the presence of 2.5 mg/ml n-octyl-β-D-glucopyranoside and 1 mM Pefabloc SC (Sigma-Aldrich). […]
Ex vivo tetramer staining and enrichment was accomplished using previously published protocols (Rims et al. 2019 Arthritis Rheumatol. 71:518; Uchtenhagen et al. 2016 Nat Comm 7:12614). […] Samples were run on a BD LSRII flow cytometer, and data was analyzed using FlowJo software version 10. The frequency (F) of epitope-specific T cells per million memory CD4+ T cells was calculated as follows: F=(1,000,000×tetramer-positive events from enriched tube)/(100×number of memory CD4+ T cells from the “Pre” fraction). […] These served as the parent populations from which one of the four tetramer positive T-cell populations were then gated on and analyzed for surface receptor expression. […]

HLA-DRB1*04:01 [1] = molecular target: HLA-DRB1*04:01 (Homo sapiens, UniProt P01903+P01911, A100K/A169T/F76Y/I96L/K127E/L162R/M171V/N62H/P40V/Q125Y/R42H/S133A/S149N/S66Y/V115G/V209L/W38E); assay: Peptide competition binding assay to HLA-DRB1*04:01; settings: competition with 0.01 μM biotinylated influenza HA306-318
[2] = tested on: antibodies in sera from RA and HC subjects; assay: ELISA for detection of serum antibodies against peptides; type: binding, human; settings: for antibody reactivity relative to threshold for positivity: Autoantibody Cohort 2
Protocol: ELISAs were used to detect antibodies against citrullinated peptides in sera from patients in Autoantibody Cohorts 1 and 2 (FIG. 6). Peptides used in the assay were synthesized by either GenScript or Pepceutical and are described in FIG. 12. The ELISAs were conducted as previously described (Riedl et al. 2001 Int J Colorectal Dis.16:285; Quarona et al. 2013 Cytometry Part B, Clinical cytometry 84:207). In brief, 96-well Nunc Maxisorp plates were coated with 10 μg/ml peptide in PBS, blocked with 2% BSA and incubated with sera diluted 1:100. Bound antibodies were detected with an HRP-conjugated anti-human IgG Fc monoclonal antibody (6043HRP, Stratech). A standard curve of positive sera was used to calculate relative antibody titers in arbitrary units (AU) for each sample. The CCP2 ELISA for Autoantibody Cohort 1 was performed as by the manufacturer's instruction (FCCP600, Axis-Shield). Cross-reactivity was analyzed in human sera that were reactive to both cTNC56 or cTNC17 and cTNC5. Sera were diluted 1:100, incubated with 1, 10 and 100 μg/ml of peptides for 2 hours, centrifuged at 10,000 g for 10 min and the supernatant added to peptide-coated plates for analysis by ELISA as described above. Positivity was defined by the cut-off of the 98% percentile of healthy control samples from Autoantibody Cohort 1.

[3] = tested on: peripheral blood mononuclear cells (PBMC) from HLA-DRB1*04:01 positive subjects; assay: In vitro expansion of peptide-specific T cells and HLA class II tetramer staining; type: cell-based, human; settings: two weeks of in vitro expansion, 10 μg/ml peptide
Protocol: Recombinant HLA-DRB1*04:01 protein was produced by the BRI Tetramer Core (Benaroya Research Institute, Seattle, WA) as previously described (Novak et al. 1999 J Clin Inv.104:R63). Soluble HLA-DRB1*04:01 monomer was purified from insect cell culture supernatants and biotinylated at a sequence-specific site using biotin ligase (Avidity) prior to dialysis into phosphate storage buffer. The biotinylated monomer was loaded with 0.2 mg/ml of peptide by incubating at 37° C. for 72 hours in the presence of 2.5 mg/ml n-octyl-β-D-glucopyranoside and 1 mM Pefabloc SC (Sigma-Aldrich). Peptide loaded monomers were conjugated into tetramers using fluorescently labeled streptavidin (Invitrogen) for 6-18 hours at room temperature at a molar ratio of 8:1.
Cryopreserved PBMCs from RA and healthy subjects were cultured at 5×10^6 cells/well in a 48 well plate in RPMI-1640+10% HPS with 10 μg/ml of peptide. IL-2 (Novartis) was added at 325 IU/ml on day 6. On day 14, cells were stained for expression of tetramer-PE, CD25 APC (BD) and CD4 FITC (BioLegend), and then characterized by immunocytofluorimetry on a FACSCanto™ (BD). The data were analyzed by FlowJo software version 10.

[4] = tested on: CCP-reactive antibody (ACPA) pools from plasma and synovial fluid; assay: Extracellular matrix peptide microarray with polyclonal CCP-pools; type: binding, human; settings: ACPA pools at 15 μg/ml
Protocol: The custom-made microarray was performed as previously described (Steen et al. 2019 Arthritis Rheumatol. 71:196). In brief, 16-aa long peptides that covered all arginine residues of 1,610 extracellular matrix proteins and RA related proteins were synthesized in situ (Roche NimbleGen). For tenascin C, there were a total of 217 peptides including both native and citrullinated variants of each peptide synthesized. Samples tested for reactivity against TNC derived peptides included synovial and plasma ACPA pools containing CCP-reactive antibodies from 26 and 38 RA patients, respectively (Ossipova et al. 2014 Arthritis Res Ther. 16:R167; Sahlström et al. 2020 Arthritis Rheumatol. 72:1643) Paired synovial fluid and serum samples from one RA patient taken at two time points 10 years apart were also screened. ACPA pools were run at a concentration of 15 μg/ml, whereas synovial fluid and plasma or serum samples were diluted 1/100 and tested for citrulline reactivity using a NimbleGen MS200 Scanner (Roche NimbleGen). A peptide signal intensity variation (spot size) of pixels was used as a basis for calculating the median fluorescence intensities. The cutoff for positive signals was defined as 5 times the fluorescence intensity of the 98th percentile of values for a set of monoclonal antibodies without citrulline reactivity. […]

HLA-DRB1*04:01 [5] = molecular target: T1, HLA-DRB1*04:01 (human); assay: peptide competition assay against biotinylated HA306-318
T1 construct: MHC class II molecule; also called HLA-DR protein; recombinant HLA-DRB1*04:01 protein

Question: With “MP 97-116: influenza peptide used as positive control (VKLYRKLKREITFHGAKEIS; Matrix protein 1; UniProt P03485 97-116, looked up, fragment) [reference compound]” as the molecule, how does the “frequency of peptide-specific memory CD4+ T cells in RA compared to HC subjects” value (memory CD4+ T cells) read?
Answer: did not differ between RA and HC subjects

Question: With “arg-TNC17: corresponding unmodified arginine-containing peptide of cit-TNC17 (VSLISRRGDMSSNPA)” as the molecule, how does the “binding to HLA-DRB1*04:01” value (HLA-DRB1*04:01 [1]) read?
Answer: did not

Question: What about the “antibody reactivity relative to threshold for positivity” value [2] of the same molecule?
Answer: below the threshold for positivity in almost all subjects

Question: Which “immunogenicity: epitope-specific T cell expansion by HLA Class II tetramer staining” value [3] does the source give for “arg-TNC22: corresponding unmodified arginine-containing peptide of cit-TNC22 (FDRYRLNYSLPTGQW)” here?
Answer: ability to elicit T cell responses

Question: What about the “binding to HLA-DRB1*04:01” value (HLA-DRB1*04:01 [1]) of the same molecule?
Answer: bound

Question: Which results are given for “arg-TNC45: corresponding unmodified arginine-containing peptide of cit-TNC45 (PDGFRLSWTADEGVF)”?
Answer: immunogenicity: epitope-specific T cell expansion by HLA Class II tetramer staining [3]: ability to elicit T cell responses; binding to HLA-DRB1*04:01 (HLA-DRB1*04:01 [1]): bound

Question: With “arg-TNC56: corresponding unmodified arginine-containing peptide of cit-TNC56 (QGQYELRVDLRDHGE)” as the molecule, how does the “binding to HLA-DRB1*04:01” value (HLA-DRB1*04:01 [1]) read?
Answer: did not

Question: And the “antibody reactivity relative to threshold for positivity” value [2]?
Answer: below the threshold for positivity in almost all subjects

Question: Which results are given for “cit-TNC5: previously published citrullinated peptide from the C-terminal FBG domain of TNC, used as positive control (CEHSIQFAEMKL[Cit]PSNF[Cit]NLEG[Cit][Cit]KRC; not fully specified; cysteine pairing not given here) [reference compound]”?
Answer: antibody reactivity in plasma CCP-pool [4]: could be verified; antibody reactivity in synovial fluid derived antibody pools [4]: strong positive signal; RA sera with antibodies to the peptide ([2]; Autoantibody Cohort 1, HLA-DRB1*04:01 and CCP positive RA n=17): 47%; antibody titers / reactivity in RA sera ([2]; Autoantibody Cohort 1, sera diluted 1:100): highest

Question: Does QGQYELRVDLRDHGE (not fully specified, See note of arg-TNC17) [arg-TNC56] bind (HLA-DRB1*04:01 [5])?
Answer: no binding

Question: Does VSLISRRGDMSSNPA (not fully specified) [arg-TNC17] bind (HLA-DRB1*04:01 [5])?
Answer: no binding
